Data on 20 compounds can be found in patent US8530489B2 (Vertex Pharmaceuticals Incorporated, priority 2006, dated 2013).

SMILES strings stand for the structures.

The assay concerns the target PLK1 (Homo sapiens, UniProt P53350). The assay is described as follows: PLK1 Inhibition Assay I (radioactive-phosphate incorporation). The format is biochemical. Particulars: Ki(app); PLK1 Inhibition Assay I or II (table does not say which). The method, boiled down:
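Ki(app) values came from non-linear regression of initial rates after background subtraction, with phosphopeptide measured by phosphocellulose filter binding and scintillation counting. PLK1 at 2 nM was preincubated with compound (typically from 10 μM, 2-fold dilutions) for 10 min, then run 240 min at 25° C with 350 μM [γ-33P]ATP and 450 μM peptide substrate in HEPES pH 7.5 buffer.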

PLK1, sequence (P53350 whole entry): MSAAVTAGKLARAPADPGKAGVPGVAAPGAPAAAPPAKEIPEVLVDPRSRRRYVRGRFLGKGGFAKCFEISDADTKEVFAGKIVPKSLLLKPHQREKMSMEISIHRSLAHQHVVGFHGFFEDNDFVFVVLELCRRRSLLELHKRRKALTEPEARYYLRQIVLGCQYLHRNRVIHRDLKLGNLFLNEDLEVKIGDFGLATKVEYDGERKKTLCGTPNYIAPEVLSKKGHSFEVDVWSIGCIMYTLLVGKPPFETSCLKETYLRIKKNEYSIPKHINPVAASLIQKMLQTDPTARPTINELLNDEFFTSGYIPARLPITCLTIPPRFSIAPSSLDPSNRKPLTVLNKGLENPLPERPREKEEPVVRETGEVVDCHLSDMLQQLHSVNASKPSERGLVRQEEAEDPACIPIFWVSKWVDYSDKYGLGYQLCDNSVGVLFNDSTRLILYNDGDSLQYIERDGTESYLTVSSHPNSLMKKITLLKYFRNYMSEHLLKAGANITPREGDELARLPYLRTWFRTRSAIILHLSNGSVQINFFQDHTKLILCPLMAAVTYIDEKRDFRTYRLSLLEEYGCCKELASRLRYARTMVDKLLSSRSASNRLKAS

For the compound `CC(Nc1ncc(C#N)c(-c2c[nH]c3ncc(C(F)(F)F)cc23)n1)C1CCN(C(=O)C2CC2)CC1` (centres unmarked) [Compound I-159, 2-(1-(1-(cyclopropanecarbonyl)piperidin-4-yl)ethylamino)-4-(5-(trifluoromethyl)-1H-pyrrolo[2,3-b]pyridin-3-yl)pyrimidine-5-carbonitrile], the Ki was less than 3 nM.
For `CNC(=O)N1CCC(C(C)Nc2ncc(C#N)c(-c3c[nH]c4ncc(C(F)(F)F)cc34)n2)CC1` (centres unmarked) [Compound I-160, 4-(1-(5-cyano-4-(5-(trifluoromethyl)-1H-pyrrolo[2,3-b]pyridin-3-yl)pyrimidin-2-ylamino)ethyl)-N-methylpiperidine-1-carboxamide] the value was less than 3 nM; for `C[C@H](Nc1ncc(C#N)c(-c2c[nH]c3ncc(C(F)(F)F)cc23)n1)c1ccc(O[C@H]2CCN(C)C2)cc1` [Compound I-161, 2-((S)-1-(4-((S)-1-methylpyrrolidin-3-yloxy)phenyl)ethylamino)-4-(5-(trifluoromethyl)-1H-pyrrolo[2,3-b]pyridin-3-yl)pyrimidine-5-carbonitrile], less than 3 nM.
Take `CC(Nc1ncc(C#N)c(-c2c[nH]c3ncc(C(F)(F)F)cc23)n1)c1ccc(N2CCC(O)CC2)nc1` (centres unmarked) [Compound I-162, 2-(1-(6-(4-hydroxypiperidin-1-yl)pyridin-3-yl)ethylamino)-4-(5-(trifluoromethyl)-1H-pyrrolo[2,3-b]pyridin-3-yl)pyrimidine-5-carbonitrile]: the Ki is less than 3 nM.
The value for `CNC(=O)c1ccc([C@@H](C)Nc2ncc(C#N)c(-c3c[nH]c4ncc(C(F)(F)F)cc34)n2)cc1` [Compound I-163, 4-((1R)-1-(5-cyano-4-(5-(trifluoromethyl)-1H-pyrrolo[2,3-b]pyridin-3-yl)pyrimidin-2-ylamino)ethyl)-N-methylbenzamide] was less than 3 nM; that for `CNC(=O)c1ccc([C@H](C)Nc2ncc(C#N)c(-c3c[nH]c4ncc(C(F)(F)F)cc34)n2)cc1` [Compound I-164, 4-((1S)-1-(5-cyano-4-(5-(trifluoromethyl)-1H-pyrrolo[2,3-b]pyridin-3-yl)pyrimidin-2-ylamino)ethyl)-N-methylbenzamide] was 3 to 40 nM.
Turning to `Cc1ccc(S(=O)(=O)N2CCC(C(C)Nc3ncc(C#N)c(-c4c[nH]c5ncc(C(F)(F)F)cc45)n3)CC2)cc1` (centres unmarked) [Compound I-165, 2-(1-(1-tosylpiperidin-4-yl)ethylamino)-4-(5-(trifluoromethyl)-1H-pyrrolo[2,3-b]pyridin-3-yl)pyrimidine-5-carbonitrile], the Ki was in the range of 3 to 40 nM.
`CC(Nc1ncc(C#N)c(-c2c[nH]c3ncc(C(F)(F)F)cc23)n1)C1CCN(CC#N)CC1` (centres unmarked) [Compound I-166, 2-(1-(1-(cyanomethyl)piperidin-4-yl)ethylamino)-4-(5-(trifluoromethyl)-1H-pyrrolo[2,3-b]pyridin-3-yl)pyrimidine-5-carbonitrile]: the Ki was less than 3 nM.
The value for `C[C@@H](Nc1ncc(C#N)c(-c2c[nH]c3ncc(C(F)(F)F)cc23)n1)c1ccc(NS(=O)(=O)C2CC2)cc1` [Compound I-168, N-(4-((1R)-1-(5-cyano-4-(5-(trifluoromethyl)-1H-pyrrolo[2,3-b]pyridin-3-yl)pyrimidin-2-ylamino)ethyl)phenyl)cyclopropanesulfonamide] was less than 3 nM; that for `CCS(=O)(=O)Nc1ccc([C@@H](C)Nc2ncc(C#N)c(-c3c[nH]c4ncc(C(F)(F)F)cc34)n2)cc1` [Compound I-169, N-(4-((1R)-1-(5-cyano-4-(5-(trifluoromethyl)-1H-pyrrolo[2,3-b]pyridin-3-yl)pyrimidin-2-ylamino)ethyl)phenyl)ethanesulfonamide] was less than 3 nM.
As for `CCNC(=O)c1ccc([C@@H](C)Nc2ncc(C#N)c(-c3c[nH]c4ncc(C(F)(F)F)cc34)n2)cc1` [Compound I-170, 4-((1R)-1-(5-cyano-4-(5-(trifluoromethyl)-1H-pyrrolo[2,3-b]pyridin-3-yl)pyrimidin-2-ylamino)ethyl)-N-ethylbenzamide], the Ki is less than 3 nM.
Regarding `C[C@@H](Nc1ncc(C#N)c(-c2c[nH]c3ncc(C(F)(F)F)cc23)n1)c1ccc(C(=O)NC2CC2)cc1` [Compound I-171, 4-((1R)-1-(5-cyano-4-(5-(trifluoromethyl)-1H-pyrrolo[2,3-b]pyridin-3-yl)pyrimidin-2-ylamino)ethyl)-N-cyclopropylbenzamide], the Ki is 3 to 40 nM.
For `CC(C)NC(=O)c1ccc([C@@H](C)Nc2ncc(C#N)c(-c3c[nH]c4ncc(C(F)(F)F)cc34)n2)cc1` [Compound I-172, 4-((1R)-1-(5-cyano-4-(5-(trifluoromethyl)-1H-pyrrolo[2,3-b]pyridin-3-yl)pyrimidin-2-ylamino)ethyl)-N-isopropylbenzamide] the value was 3 to 40 nM.
The value for `CCC(Nc1ncc(C#N)c(-c2c[nH]c3ncc(C(F)(F)F)cc23)n1)C1CCN(CC#N)CC1` (centres unmarked) [Compound I-173, 2-(1-(1-(cyanomethyl)piperidin-4-yl)propylamino)-4-(5-(trifluoromethyl)-1H-pyrrolo[2,3-b]pyridin-3-yl)pyrimidine-5-carbonitrile] was less than 3 nM.
For the compound `CCC(Nc1ncc(C#N)c(-c2c[nH]c3ncc(C(F)(F)F)cc23)n1)C1CCN(C(C)=O)CC1` (centres unmarked) [Compound I-174, 2-(1-(1-acetylpiperidin-4-yl)propylamino)-4-(5-(trifluoromethyl)-1H-pyrrolo[2,3-b]pyridin-3-yl)pyrimidine-5-carbonitrile], the Ki was less than 3 nM.
For `CCC(Nc1ncc(C#N)c(-c2c[nH]c3ncc(C(F)(F)F)cc23)n1)C1CCN(S(=O)(=O)CC)CC1` (centres unmarked) [Compound I-175, 2-(1-(1-(ethylsulfonyl)piperidin-4-yl)propylamino)-4-(5-(trifluoromethyl)-1H-pyrrolo[2,3-b]pyridin-3-yl)pyrimidine-5-carbonitrile] the value was less than 3 nM; for `C[C@@H](Nc1ncc(C#N)c(-c2c[nH]c3ncc(C(F)(F)F)cc23)n1)c1ccc(C(N)=O)cc1` [Compound I-176, 4-((1R)-1-(5-cyano-4-(5-(trifluoromethyl)-1H-pyrrolo[2,3-b]pyridin-3-yl)pyrimidin-2-ylamino)ethyl)benzamide], less than 3 nM; for `C[C@@H](Nc1ncc(C#N)c(-c2c[nH]c3ncc(C(F)(F)F)cc23)n1)c1ccc(NS(C)(=O)=O)c(F)c1` [Compound I-177, N-(4-((1R)-1-(5-cyano-4-(5-(trifluoromethyl)-1H-pyrrolo[2,3-b]pyridin-3-yl)pyrimidin-2-ylamino)ethyl)-2-fluorophenyl)methanesulfonamide], less than 3 nM.
On to `C#CCN1CCC(C(C)Nc2ncc(C#N)c(-c3c[nH]c4ncc(C(F)(F)F)cc34)n2)CC1` (centres unmarked) [Compound I-178, 2-(1-(1-(prop-2-ynyl)piperidin-4-yl)ethylamino)-4-(5-(trifluoromethyl)-1H-pyrrolo[2,3-b]pyridin-3-yl)pyrimidine-5-carbonitrile], for which the Ki lay within 3 to 40 nM.
Take `C[C@@H](Nc1ncc(C#N)c(-c2c[nH]c3ncc(C(F)(F)F)cc23)n1)[C@H]1CC[C@H](O)CC1` [Compound I-179, 2-((R)-1-((1r,4R)-4-hydroxycyclohexyl)ethylamino)-4-(5-(trifluoromethyl)-1H-pyrrolo[2,3-b]pyridin-3-yl)pyrimidine-5-carbonitrile]: the Ki is less than 3 nM.
